Reference: publication PMC6435658, “Investigation into the Molecular Mechanisms underlying the Anti-proliferative and Anti-tumorigenesis activities of Diosmetin against HCT-116 Human Colorectal Cancer” (Scientific Reports, 2019)
In brackets after ≈: the same amount, converted by molar mass.

Assays:
MDA-MB 468 = test system: MDA-MB 468; parameters: method as in PMID 19424633, PMID 27176768, PMID 26847170, PMID 20183323; details: MDA-MB 468, 24 h treatment; ref [10],[13],[15],[47]; cited from earlier work
HepG-2 = test system: HepG-2; parameters: method as in PMID 19424633, PMID 27176768, PMID 26847170, PMID 20183323; details: HepG-2, 24 h treatment; ref [10],[13],[15],[47]; cited from earlier work
HCT-116 cells [1] = assay: Cell cycle analysis by flow cytometry; type: cell-based, human; details: HCT-116, 24 h, 48 h, 72 h
Description: Flow cytometry analysis was performed to determine any disruption during the cell cycle of HCT-116 cells in the presence of Dis. HCT-116at density of 2 × 10^6 cells were seeded and treated for 24 h, 48 h and 72 h in a 75 cm^2 flask. Negative control was treated with 0.02% DMSO. After fixation of the cells with 70% ethanol, cells were preserved in −20 °C overnight followed by washing and staining with 500 µl of PI/Rnase dye (BD Biosciences, San Jose, CA, USA) and incubated for 30 min. DNA content analysis was performed using BD FACSCanto II flow cytometer instrument and BD FACS Diva software (BD FACSCanto™II, San Jose, CA, USA). A total of 15,000 events per sample were recorded for analysis. ModFit LT version 3.0 software was used for analyzing the data.

HCT-116 cells [2] = assay: Multiple cytotoxicity assay (Cellomics multiparameter cytotoxicity 3 kit); type: cell-based, human; details: HCT-116, Dis 3.58 µg/ml
Description: Cellomics multiparameter cytotoxicity 3 kit (Thermo Scientific™, Pittsburgh, PA, USA) was used to investigate the vital apoptotic events in HCT-116 cells in the presence of Dis. Cytotoxicity 3 assay was used to provide information about the changes in nuclear morphology, cell membrane integrity, cytochrome C release and mitochondrial outer membrane permeabilization (MOMP). HCT-116 cells were seeded in 24 well-plate and covered by a cover slide followed by treatment with Dis for 24 h, 48 h and 72 h. Treated cells were stained with YoYo dye (life technology, CA, USA) and Mitotracker dye (life technology, CA, USA) followed by fixation and blocking procedures according to the manufacture’s protocol. Primary cytochrome C (Thermo Scientific™, Pittsburgh, PA, USA) antibody and secondary DyLight 650 (Thermo Scientific™, Pittsburgh, PA, USA) were added to each well and incubated for 1 h in the dark. Hoechst 33342 dye (Thermo Scientific™, Pittsburgh, PA, USA) was added in the last step to stain the nuclei of the cells. Cells were washed and cover slides were transferred on the slide and introduced to confocal Leica TCS SP5 II microscope (Leica Microsystems, Mannheim, Germany). Intensity of each dye was measured by using LAS X software.

HCT-116 cells [3] = assay: NanoString nCounter gene expression profiling; type: cell-based, human
Description: Gene expressions of the cancer canonical pathways were measured by NanoString nCounter. HCT-116 cells were treated with Dis for 48 h and total RNA were extracted by using RNeasy Mini Kit (QiAgen, Hilden, Germany) according to the manufacture’s protocol. Concentrations of RNA were checked through NanoDrop 2000C (Thermo Scientific™, Pittsburgh, PA, USA). Pancancer pathways panel on Nanostring nCounter system (Nanostring Technologies, Inc., Seattle, WA, USA) were used to investigate the gene expression profile of cancer pathways. A total of 770 genes were investigated and compared between Dis treated and untreated cells. The list of investigated genes is provided as supplementary data (Table S1). RNA was hybridized, purified and immobilized before being aligned on the nCounter cartridge and introduced to nCounter.
Digital Analyzer was utilized for data collection according to the manufacturer’s instruction. Briefly, RNA samples were added to the master mix contain hybridization buffer and reporter CodeSet. Capture ProbeSet was added to this mixture and introduced to pre-heated 65 °C thermal cycler for 16 h incubation. After removing the unbound probe, target/probe were immobilized and aligned on the nCounter Cartridge. nCounter digital analyzer was used to collect the nCounter cartridge data and data were analyzed using nSolver 3.0 analysis software. Significant genes were choose based on the false discovery rate (FDR) <0.05 and log2 fold change ≥ ± 0.5 supplementary data (Figure S1).

COc1ccc(-c2cc(=O)c3c(O)cc(O)cc3o2)cc1O [Dis, Diosmetin]
IC50 (MDA-MB 468): 1.35 mg/L (≈ 4.5 µM) | IC50 (HepG-2): 12 mg/L (≈ 40 µM) | cell cycle arrest (HCT-116 cells [1]): arrested in G2/M phase | Cytochrome C release (HCT-116 cells [2]): releases of Cytochrome C from mitochondria to cytosol | mitochondrial membrane potential (HCT-116 cells [2]; Mitotracker uptake): losses of the mitochondrial membrane potential | cell permeability (HCT-116 cells [2]; YoYo dye): increases | gene expression of NF-ƙB inhibitor (iƙb-α) (HCT-116 cells [3]; HCT-116, Dis treated): elevates | Log2 fold change, Fubp1 (HCT-116 cells [3]; gene Fubp1, HCT-116, Dis 48 h vs untreated): −0.5 | Log2 fold change, Prkar2b (HCT-116 cells [3]; gene Prkar2b, HCT-116, Dis 48 h vs untreated): −1.6 | Log2 fold change, bax (HCT-116 cells [3]; gene bax, HCT-116, Dis 48 h vs untreated): 0.5 | Log2 fold change, bmp8a (HCT-116 cells [3]; gene bmp8a, HCT-116, Dis 48 h vs untreated): −2.2 | Log2 fold change, ccna2 (cyclin A) (HCT-116 cells [3]; gene ccna2 (cyclin A), HCT-116, Dis 48 h vs untreated): −0.6 | Log2 fold change, ccnb1 (cyclin B) (HCT-116 cells [3]; gene ccnb1 (cyclin B), HCT-116, Dis 48 h vs untreated): −0.5 | Log2 fold change, cdc7 (HCT-116 cells [3]; gene cdc7, HCT-116, Dis 48 h vs untreated): −0.8 | Log2 fold change, cdc25 (HCT-116 cells [3]; gene cdc25, HCT-116, Dis 48 h vs untreated): −0.6 | Log2 fold change, cdkn1a (p21) (HCT-116 cells [3]; gene cdkn1a (p21), HCT-116, Dis 48 h vs untreated): 1.5 | Log2 fold change, fas (HCT-116 cells [3]; gene fas, HCT-116, Dis 48 h vs untreated): 0.8 | Log2 fold change, gadd45 (HCT-116 cells [3]; gene gadd45, HCT-116, Dis 48 h vs untreated): 0.8 | Log2 fold change, h2afx (HCT-116 cells [3]; gene h2afx, HCT-116, Dis 48 h vs untreated): −0.9 | Log2 fold change, h3f3a (h2a) (HCT-116 cells [3]; gene h3f3a (h2a), HCT-116, Dis 48 h vs untreated): −0.9 | Log2 fold change, hdac1 (HCT-116 cells [3]; gene hdac1, HCT-116, Dis 48 h vs untreated): −0.5 | Log2 fold change, hdac2 (HCT-116 cells [3]; gene hdac2, HCT-116, Dis 48 h vs untreated): −0.6 | Log2 fold change, hdac5 (HCT-116 cells [3]; gene hdac5, HCT-116, Dis 48 h vs untreated): −2.6 | Log2 fold change, hells (HCT-116 cells [3]; gene hells, HCT-116, Dis 48 h vs untreated): −0.6 | Log2 fold change, hist1h3b (HCT-116 cells [3]; gene hist1h3b, HCT-116, Dis 48 h vs untreated): −1.2 | Log2 fold change, hist1h3h (HCT-116 cells [3]; gene hist1h3h, HCT-116, Dis 48 h vs untreated): −1.5 | Log2 fold change, hspb1 (hsp27) (HCT-116 cells [3]; gene hspb1 (hsp27), HCT-116, Dis 48 h vs untreated): −2.2 | Log2 fold change, id1 (HCT-116 cells [3]; gene id1, HCT-116, Dis 48 h vs untreated): −0.5 | Log2 fold change, id2 (HCT-116 cells [3]; gene id2, HCT-116, Dis 48 h vs untreated): −2.0 | Log2 fold change, mad2l2 (HCT-116 cells [3]; gene mad2l2, HCT-116, Dis 48 h vs untreated): −0.6 | Log2 fold change, mcm2 (HCT-116 cells [3]; gene mcm2, HCT-116, Dis 48 h vs untreated): −0.6 | Log2 fold change, mcm4 (HCT-116 cells [3]; gene mcm4, HCT-116, Dis 48 h vs untreated): −0.6 | Log2 fold change, mcm7 (HCT-116 cells [3]; gene mcm7, HCT-116, Dis 48 h vs untreated): −0.6 | Log2 fold change, msh2 (HCT-116 cells [3]; gene msh2, HCT-116, Dis 48 h vs untreated): −0.7 | Log2 fold change, nbn (HCT-116 cells [3]; gene nbn, HCT-116, Dis 48 h vs untreated): −0.5 | Log2 fold change, pcna (HCT-116 cells [3]; gene pcna, HCT-116, Dis 48 h vs untreated): −0.6 | Log2 fold change, pole2 (HCT-116 cells [3]; gene pole2, HCT-116, Dis 48 h vs untreated): −1.4 | Log2 fold change, pttg2 (HCT-116 cells [3]; gene pttg2, HCT-116, Dis 48 h vs untreated): −0.9 | Log2 fold change, rad21 (HCT-116 cells [3]; gene rad21, HCT-116, Dis 48 h vs untreated): −0.8 | Log2 fold change, rbx1 (HCT-116 cells [3]; gene rbx1, HCT-116, Dis 48 h vs untreated): −1.2 | Log2 fold change, setd2 (HCT-116 cells [3]; gene setd2, HCT-116, Dis 48 h vs untreated): 0.7 | Log2 fold change, sfn (stratifin) (HCT-116 cells [3]; gene sfn (stratifin), HCT-116, Dis 48 h vs untreated): 0.6 | Log2 fold change, sin3 (HCT-116 cells [3]; gene sin3, HCT-116, Dis 48 h vs untreated): −0.5 | Log2 fold change, smad9 (HCT-116 cells [3]; gene smad9, HCT-116, Dis 48 h vs untreated): −2.7 | Log2 fold change, smc3 (HCT-116 cells [3]; gene smc3, HCT-116, Dis 48 h vs untreated): −0.7 | Log2 fold change, stmn1 (HCT-116 cells [3]; gene stmn1, HCT-116, Dis 48 h vs untreated): −1.5 | Log2 fold change, tnfrsf10b (HCT-116 cells [3]; gene tnfrsf10b, HCT-116, Dis 48 h vs untreated): 0.8 | Log2 fold change, ttk (HCT-116 cells [3]; gene ttk, HCT-116, Dis 48 h vs untreated): −1.0 | Log2 fold change, ubb (HCT-116 cells [3]; gene ubb, HCT-116, Dis 48 h vs untreated): −0.9
